Laboratory results from patent US8324176B2, “Pyrazole derivatives, medicinal composition containing the same, medicinal use thereof, and intermediate for production thereof” (Kissei Pharmaceutical Co., Ltd., priority 2002, dated 2012).

Target: T1, human SGLT1 (Homo sapiens, UniProt P13866)
T1 construct: expressed in transfected cells
T1 sequence (P13866 1-664): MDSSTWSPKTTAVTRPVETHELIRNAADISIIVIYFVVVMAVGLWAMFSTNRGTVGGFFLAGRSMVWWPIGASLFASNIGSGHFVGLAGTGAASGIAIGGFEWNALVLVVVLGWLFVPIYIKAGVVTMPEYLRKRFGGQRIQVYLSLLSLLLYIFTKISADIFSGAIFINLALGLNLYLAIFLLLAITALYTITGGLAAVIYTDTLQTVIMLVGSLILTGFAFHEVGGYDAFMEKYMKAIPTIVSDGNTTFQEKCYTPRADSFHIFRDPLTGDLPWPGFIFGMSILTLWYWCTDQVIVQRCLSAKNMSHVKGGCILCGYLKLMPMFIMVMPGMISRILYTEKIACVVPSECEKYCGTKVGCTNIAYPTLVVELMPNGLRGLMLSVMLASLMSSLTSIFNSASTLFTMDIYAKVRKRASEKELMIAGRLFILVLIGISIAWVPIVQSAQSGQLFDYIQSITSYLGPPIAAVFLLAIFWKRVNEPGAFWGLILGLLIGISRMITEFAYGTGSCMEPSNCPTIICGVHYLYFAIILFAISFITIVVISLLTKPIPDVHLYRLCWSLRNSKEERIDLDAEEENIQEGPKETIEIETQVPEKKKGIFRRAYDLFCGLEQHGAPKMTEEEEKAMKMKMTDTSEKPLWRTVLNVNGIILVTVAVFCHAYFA
Experiment: Assay for inhibitory effects on human SGLT1 activity (uptake of methyl-α-D-glucopyranoside in CS1-5-11D cells)
Format: cell-based
Conditions: CHO-K1 cells stably expressing human SGLT1 (CS1-5-11D); 1 mM α-MG uptake, 37° C., 1 hour
Method: Assay for Inhibitory Effects on Human SGLT1 Activity
1) Cloning and Construction of the Vector Expressing Human SGLT1
The cDNA library was prepared for PCR amplification by reverse transcription from total RNA deprived from human small intestine (Ori gene) using oligo-dT as a primer.
2) Establishment of Cell Line Stably Expressing Human SGLT1
The expression vector of human SGLT1 was digested by Sca I into a linear DNA. The linear DNA was transfected into CHO-K1 cells by means of lipofection (Effectene Transfection Reagent: QIAGEN). Neomycin resistant cell lines were selected by culture in the medium containing G418 (1 mg/mL, LIFE TECHNOLOGIES), and then the activity against the uptake of methyl-α-D-glucopyranoside was measured by the method described below. […] CS1-5-11D cells were cultured in the presence of G418 at 200 μg/mL.
3) Measurement of the Inhibitory Activity Against the Uptake of Methyl-α-D-glucopyranoside (α-MG)
CS1-5-11D cells were seeded into a 96-well culture plate at a density of 3×10^4 cells/well and cultured for 2 days, and were used in the uptake assay. A mixture of non-labeled (Sigma) and ^14C-labeled α-MG (Amersham Pharmcia Biotec) was added to the uptake buffer (pH 7.4: containing 140 mM sodium chloride, 2 mM potassium chloride, 1 mM calcium chloride, 1 mM magnesium chloride, 10 mM 2-[4-(2-hydroxyethyl)-1-piperazinyl]ethane sulfonic acid, and 5 mM tris(hydroxymethyl)aminomethane) at the final concentration of 1 mM. A test compound was dissolved in dimethyl sulfoxide, and then appropriately diluted with distilled water. The test compound solution was added to the uptake buffer containing 1 mM α-MG, and designated as a measurement buffer. For the control group, the measurement buffer without any test compound was prepared. For measuring the basal uptake, a basal uptake measurement buffer which contains 140 mM chorine chloride instead of sodium chloride was prepared. After removing the culture medium of CS1-5-11D cells, 180 μL of the pre-treatment buffer (the basal uptake buffer without α-MG) was added to each well and incubated at 37° C. for 10 minutes. After repeating the same treatment, the pre-treatment buffer was removed. To each well was added 75 μL of the measurement buffer or the basal uptake buffer was added and incubated at 37° C. for 1 hour. After removing the measurement buffer, cells were washed twice with 180 μL per well of the washing buffer (the basal uptake buffer containing 10 mM non-labeled α-MG). The cells were solubilized by 75 μL per well of 0.2 mol/L sodium hydroxide. The cell lysates were transferred into PicoPlates (Packard), and then added 150 μL of MicroScint-40 (Packard) and mixed. Radioactivity was measured by means of micro-scintillation counter TopCount (Packard). One hundred was set to the difference between the uptake in the control group and the basal uptake, and the uptake of methyl α-D-glucopyranoside a teach drug concentration were calculated.

Compound	IC50
Cc1cc(OCCCN)ccc1Cc1c(O[C@@H]2O[C@H](CO)[C@@H](O)[C@H](O)[C@H]2O)n[nH]c1C(C)C [Example 9, 4-{[4-(3-Aminopropoxy)-2-methylphenyl]methyl}-3-(β-D-glucopyranosyloxy)-5-isopropyl-1H-pyrazole]	42 nM
CC(C)c1[nH]nc(O[C@@H]2O[C@H](CO)[C@@H](O)[C@H](O)[C@H]2O)c1Cc1ccc(OCCCNC(=O)NC(CO)CO)cc1 [Example 22, 3-(β-D-Glucopyranosyloxy)-4-{[4-(3-{3-[2-hydroxy-1-(hydroxymethyl)ethyl]ureido}propoxy)phenyl]methyl}-5-isopropyl-1H-pyrazole]	233 nM
Cc1cc(OCCCNC(=O)NC(C)(CO)CO)ccc1Cc1c(O[C@@H]2O[C@H](CO)[C@@H](O)[C@H](O)[C@H]2O)n[nH]c1C(C)C [Example 28, 3-(β-D-Glucopyranosyloxy)-4-{[4-(3-{3-[2-hydroxy-1-(hydroxymethyl)-1-(methyl)ethyl]ureido}propoxy)-2-methylphenyl]methyl}-5-isopropyl-1H-pyrazole]	90 nM
Cc1cc(OCCCNC(=O)NC(C)(C)CO)ccc1Cc1c(O[C@@H]2O[C@H](CO)[C@@H](O)[C@H](O)[C@H]2O)n[nH]c1C(C)C [Example 29, 3-(β-D-Glucopyranosyloxy)-4-{[4-(3-(3-[2-hydroxy-1,1-di(methyl)ethyl]ureido)propoxy)-2-methylphenyl]methyl}-5-isopropyl-1H-pyrazole]	19 nM
Cc1cc(OCCCNC(=O)NCCO)ccc1Cc1c(O[C@@H]2O[C@H](CO)[C@@H](O)[C@H](O)[C@H]2O)n[nH]c1C(C)C [Example 30, 3-(β-D-Glucopyranosyloxy)-4-[(4-(3-[3-(2-hydroxyethyl)ureido]propoxy)-2-methylphenyl)methyl]-5-isopropyl-1H-pyrazole]	257 nM
Cc1cc(OCCNC(=O)NC(C)(C)C(N)=O)ccc1Cc1c(O[C@@H]2O[C@H](CO)[C@@H](O)[C@H](O)[C@H]2O)n[nH]c1C(C)C [Example 31, 4-{[4-(2-{3-[1-Carbamoyl-1-(methyl)ethyl]ureido}ethoxy)-2-methylphenyl]methyl}-3-(β-D-glucopyranosyloxy)-5-isopropyl-1H-pyrazole]	166 nM
Cc1cc(OCCNC(=O)NC(C)(CO)CO)ccc1Cc1c(O[C@@H]2O[C@H](CO)[C@@H](O)[C@H](O)[C@H]2O)n[nH]c1C(C)C [Example 32, 3-(β-D-Glucopyranosyloxy)-4-{[4-(2-{3-[2-hydroxy-1-(hydroxymethyl)-1-(methyl)ethyl]ureido}ethoxy)-2-methylphenyl]methyl}-5-isopropyl-1H-pyrazole]	113 nM
Cc1cc(OCCNC(=O)NC(C)(C)CO)ccc1Cc1c(O[C@@H]2O[C@H](CO)[C@@H](O)[C@H](O)[C@H]2O)n[nH]c1C(C)C [Example 33, 3-(β-D-Glucopyranosyloxy)-4-{[4-(2-{3-[2-hydroxy-1,1-di(methyl)ethyl]ureido}ethoxy)-2-methylphenyl]methyl}-5-isopropyl-1H-pyrazole]	65 nM
CNC(=NC#N)NCCCOc1ccc(Cc2c(O[C@@H]3O[C@H](CO)[C@@H](O)[C@H](O)[C@H]3O)n[nH]c2C(C)C)cc1 [Example 36, 4-({4-[3-(2-Cyano-3-methylguanidino)propoxy]phenyl}methyl)-3-(β-D-glucopyranosyloxy)-5-isopropyl-1H-pyrazole]	383 nM
CC(C)c1[nH]nc(O[C@@H]2O[C@H](CO)[C@@H](O)[C@H](O)[C@H]2O)c1Cc1ccc(OCCCNS(N)(=O)=O)cc1 [Example 38, 3-(β-D-Glucopyranosyloxy)-5-isopropyl-4-({4-[3-(sulfamoylamino)propoxy]phenyl}methyl)-1H-pyrazole]	246 nM
CC(C)c1[nH]nc(O[C@@H]2O[C@H](CO)[C@@H](O)[C@H](O)[C@H]2O)c1Cc1ccc(OCCCNC(C)(C)C(N)=O)cc1 [Example 48, 4-[(4-{3-[1-Carbamoyl-1-(methyl)ethylamino]propoxy}phenyl)methyl]-3-(β-D-glucopyranosyloxy)-5-isopropyl-1H-pyrazole]	54 nM
